From PubChem BioAssay AID248 (DTP/NCI, 2004)
Where “and” joins values, the source holds several entries; their conditions need not be identical. Equal values may be shown once. Toxic doses and inconclusive results are not listed. Cut-off read from the data, not from the text of the source: active = T/C of 150% or more; inactive = T/C below 125%.

Tested on: L1210 leukemia ip in BDF1 mice, survival T/C
Test: NCI In Vivo Anticancer Drug Screen. Data for tumor model L1210 Leukemia (intraperitoneal) in B6D2F1 (BDF1) mice
Conditions: higher = longer survival
Outline: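 Read-out is survival time, reported as the treated-group measurement over the vehicle-control measurement.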

[1] = endpoint: mean survival time, dose: 100.0 mg/kg/injection, schedule: Q01DX009 (ip), vehicle: saline with Tween-80
[2] = endpoint: mean survival time, dose: 100.0 mg/kg/injection, schedule: Q04DX003 (ip), vehicle: saline with Tween-80
[3] = endpoint: mean survival time, dose: 200.0 mg/kg/injection, schedule: Q01DX009 (ip), vehicle: saline with Tween-80
[4] = endpoint: mean survival time, dose: 200.0 mg/kg/injection, schedule: Q04DX003 (ip), vehicle: saline with Tween-80
[5] = endpoint: mean survival time, dose: 400.0 mg/kg/injection, schedule: Q01DX009 (ip), vehicle: saline with Tween-80
[6] = endpoint: mean survival time, dose: 400.0 mg/kg/injection, schedule: Q04DX003 (ip), vehicle: saline with Tween-80
[7] = endpoint: mean survival time, dose: 100.0 mg/kg/injection, schedule: Q01DX001 (ip), vehicle: saline
[8] = endpoint: mean survival time, dose: 200.0 mg/kg/injection, schedule: Q01DX001 (ip), vehicle: saline

Measured: T/C

S=C(c1ccco1)N1CCOCC1
inactive: endpoint: mean survival time, dose: 75.0 mg/kg/injection, schedule: Q01DX001 (ip), vehicle: carboxymethylcellulose (CMC) 97 % of control | endpoint: mean survival time, dose: 75.0 mg/kg/injection, schedule: Q01DX009 (ip), vehicle: saline with Tween-80 102 % of control | endpoint: mean survival time, dose: 75.0 mg/kg/injection, schedule: Q04DX003 (ip), vehicle: saline with Tween-80 104 % of control | endpoint: mean survival time, dose: 150.0 mg/kg/injection, schedule: Q01DX001 (ip), vehicle: carboxymethylcellulose (CMC) 104 % of control | endpoint: mean survival time, dose: 150.0 mg/kg/injection, schedule: Q01DX009 (ip), vehicle: saline with Tween-80 100 % of control | endpoint: mean survival time, dose: 150.0 mg/kg/injection, schedule: Q04DX003 (ip), vehicle: saline with Tween-80 97 % of control | endpoint: mean survival time, dose: 300.0 mg/kg/injection, schedule: Q01DX001 (ip), vehicle: carboxymethylcellulose (CMC) 98 % of control | endpoint: mean survival time, dose: 300.0 mg/kg/injection, schedule: Q04DX003 (ip), vehicle: saline with Tween-80 89 % of control

COc1ccc(C=Nc2ccnc3cc(OC)c(OC)cc23)cc1OC
inactive: endpoint: mean survival time, dose: 100.0 mg/kg/injection, schedule: Q01DX001 (ip), vehicle: saline with Tween-80 93 % of control | endpoint: mean survival time, dose: 200.0 mg/kg/injection, schedule: Q01DX001 (ip), vehicle: saline with Tween-80 104 % of control | endpoint: mean survival time, dose: 400.0 mg/kg/injection, schedule: Q01DX001 (ip), vehicle: saline with Tween-80 102 % of control

CC1C=CC2CC(O)C12 (stereo not given)
inactive: [1] 111 % of control | [2] 102 % of control | [3] 93 % of control | [4] 98 % of control | [5] 99 % of control | [6] 98 % of control

CC1CC(=O)N(Cl)C(=O)N1Cl (stereo not given)
inactive: endpoint: mean survival time, dose: 75.0 mg/kg/injection, schedule: Q01DX001 (ip), vehicle: saline 102 % of control | endpoint: mean survival time, dose: 150.0 mg/kg/injection, schedule: Q01DX001 (ip), vehicle: saline 106 % of control

CCOC(=O)C(=O)C1CCCC1=O (stereo not given)
inactive: [1] 102 % of control | [2] 92 % of control | [3] 98 % of control | [4] 100 % of control | [5] 96 % of control | [6] 94 % of control

COc1ccc([N+](=O)[O-])cc1NC(=O)Oc1ccc(F)cc1
inactive: endpoint: mean survival time, dose: 50.0 mg/kg/injection, schedule: Q01DX009 (ip), vehicle: Klucel (hydroxypropylcellulose) (HPC) 100 % of control | endpoint: mean survival time, dose: 100.0 mg/kg/injection, schedule: Q01DX009 (ip), vehicle: Klucel (hydroxypropylcellulose) (HPC) 92 % of control | endpoint: mean survival time, dose: 200.0 mg/kg/injection, schedule: Q01DX009 (ip), vehicle: Klucel (hydroxypropylcellulose) (HPC) 96 % of control

CCOC(=O)c1cc(Cl)c(O)c(Cl)c1
inactive: endpoint: mean survival time, dose: 25.0 mg/kg/injection, schedule: Q01DX009 (ip), vehicle: gum acacia 100 % of control | endpoint: mean survival time, dose: 50.0 mg/kg/injection, schedule: Q01DX009 (ip), vehicle: gum acacia 98 % of control | endpoint: mean survival time, dose: 100.0 mg/kg/injection, schedule: Q01DX009 (ip), vehicle: gum acacia 98 % of control and 100 % of control | endpoint: mean survival time, dose: 100.0 mg/kg/injection, schedule: Q04DX003 (ip), vehicle: Klucel (hydroxypropylcellulose) (HPC) 93 % of control | endpoint: mean survival time, dose: 200.0 mg/kg/injection, schedule: Q04DX003 (ip), vehicle: Klucel (hydroxypropylcellulose) (HPC) 103 % of control | endpoint: mean survival time, dose: 400.0 mg/kg/injection, schedule: Q04DX003 (ip), vehicle: Klucel (hydroxypropylcellulose) (HPC) 95 % of control

CN(C)C=Nc1cc2c3c(c1)CCCN3CCC2
inactive: endpoint: mean survival time, dose: 12.5 mg/kg/injection, schedule: Q01DX001 (ip), vehicle: saline 103 % of control | endpoint: mean survival time, dose: 25.0 mg/kg/injection, schedule: Q01DX001 (ip), vehicle: saline 105 % of control

Nc1ncnc2[nH]ncc12
inactive: endpoint: mean survival time, dose: 0.94 mg/kg/injection, schedule: Q01DX Z (ip), vehicle: carboxymethylcellulose (CMC) 92 % of control | endpoint: mean survival time, dose: 1.7 mg/kg/injection, schedule: Q01DX015 (ip), vehicle: carboxymethylcellulose (CMC) 98 % of control | endpoint: mean survival time, dose: 1.88 mg/kg/injection, schedule: Q01DX Z (ip), vehicle: carboxymethylcellulose (CMC) 97 % of control | endpoint: mean survival time, dose: 2.6 mg/kg/injection, schedule: Q01DX015 (ip), vehicle: carboxymethylcellulose (CMC) 96 % of control and 99 % of control | endpoint: mean survival time, dose: 3.75 mg/kg/injection, schedule: Q01DX Z (ip), vehicle: carboxymethylcellulose (CMC) 114 % of control | endpoint: mean survival time, dose: 4.0 mg/kg/injection, schedule: Q01DX015 (ip), vehicle: carboxymethylcellulose (CMC) 107 % of control and 108 % of control | endpoint: mean survival time, dose: 6.0 mg/kg/injection, schedule: Q01DX015 (ip), vehicle: carboxymethylcellulose (CMC) 111 % of control and 114 % of control | endpoint: mean survival time, dose: 7.5 mg/kg/injection, schedule: Q01DX Z (ip), vehicle: carboxymethylcellulose (CMC) 114 % of control | endpoint: mean survival time, dose: 8.0 mg/kg/injection, schedule: Q02DX010 (ip), vehicle: carboxymethylcellulose (CMC) 109 % of control | endpoint: mean survival time, dose: 9.0 mg/kg/injection, schedule: Q01DX015 (ip), vehicle: carboxymethylcellulose (CMC) 109 % of control and 120 % of control | endpoint: mean survival time, dose: 13.0 mg/kg/injection, schedule: Q02DX010 (ip), vehicle: other 115 % of control | endpoint: mean survival time, dose: 13.5 mg/kg/injection, schedule: Q01DX015 (ip), vehicle: carboxymethylcellulose (CMC) 106 % of control | endpoint: mean survival time, dose: 20.0 mg/kg/injection, schedule: Q02DX010 (ip), vehicle: other 120 % of control | endpoint: mean survival time, dose: 25.0 mg/kg/injection, schedule: Q01DX009 (ip), vehicle: saline 106 % of control | endpoint: mean survival time, dose: 30.0 mg/kg/injection, schedule: Q02DX010 (ip), vehicle: other 115 % of control | endpoint: mean survival time, dose: 45.0 mg/kg/injection, schedule: Q02DX010 (ip), vehicle: other 121 % of control | endpoint: mean survival time, dose: 67.0 mg/kg/injection, schedule: Q02DX010 (ip), vehicle: other 91 % of control | endpoint: mean survival time, dose: 80.0 mg/kg/injection, schedule: Q01DX001 (ip), vehicle: carboxymethylcellulose (CMC) 111 % of control | endpoint: mean survival time, dose: 120.0 mg/kg/injection, schedule: Q01DX001 (ip), vehicle: carboxymethylcellulose (CMC) 103 % of control | endpoint: mean survival time, dose: 182.0 mg/kg/injection, schedule: Q01DX001 (ip), vehicle: carboxymethylcellulose (CMC) 117 % of control | endpoint: median survival time, dose: 3.0 mg/kg/injection, schedule: Q01DX009 (ip), vehicle: saline 100 % of control and 105 % of control | endpoint: median survival time, dose: 6.0 mg/kg/injection, schedule: Q01DX009 (ip), vehicle: saline 100 % of control and 111 % of control | endpoint: median survival time, dose: 12.0 mg/kg/injection, schedule: Q01DX009 (ip), vehicle: saline 112 % of control | endpoint: median survival time, dose: 24.0 mg/kg/injection, schedule: Q01DX009 (ip), vehicle: saline 100 % of control and 112 % of control

CCOC(=O)c1ccc(NC(=O)Oc2ccccc2C(C)C)cc1
inactive: [1] 97 % of control and 107 % of control | endpoint: mean survival time, dose: 100.0 mg/kg/injection, schedule: Q04DX002 (ip), vehicle: saline with Tween-80 101 % of control | [2] 97 % of control | [3] 93 % of control and 97 % of control | endpoint: mean survival time, dose: 200.0 mg/kg/injection, schedule: Q04DX002 (ip), vehicle: saline with Tween-80 92 % of control | [4] 93 % of control | [5] 89 % of control | endpoint: mean survival time, dose: 400.0 mg/kg/injection, schedule: Q04DX002 (ip), vehicle: saline with Tween-80 92 % of control | [6] 102 % of control

O=C1C=C[C@H](O)[C@@]2(CO)O[C@@H]12
inactive: endpoint: median survival time, dose: 0.62 mg/kg/injection, schedule: Q01DX009 (ip), vehicle: saline with Tween-80 101 % of control | endpoint: median survival time, dose: 1.25 mg/kg/injection, schedule: Q01DX009 (ip), vehicle: saline with Tween-80 108 % of control | endpoint: median survival time, dose: 2.5 mg/kg/injection, schedule: Q01DX009 (ip), vehicle: saline with Tween-80 113 % of control | endpoint: median survival time, dose: 5.0 mg/kg/injection, schedule: Q01DX009 (ip), vehicle: saline with Tween-80 120 % of control | endpoint: median survival time, dose: 10.0 mg/kg/injection, schedule: Q01DX009 (ip), vehicle: saline with Tween-80 120 % of control

FC(F)OC(F)(F)C(F)Cl (stereo not given)
inactive: [7] 89 % of control | [8] 89 % of control | endpoint: mean survival time, dose: 400.0 mg/kg/injection, schedule: Q01DX001 (ip), vehicle: saline 97 % of control

CS(=O)(=O)OC12CC3CC(CC(C3)C1)C2
inactive: endpoint: mean survival time, dose: 50.0 mg/kg/injection, schedule: Q01DX009 (ip), vehicle: saline 96 % of control | [7] 90 % of control | endpoint: mean survival time, dose: 100.0 mg/kg/injection, schedule: Q01DX009 (ip), vehicle: saline 96 % of control | [8] 98 % of control | endpoint: mean survival time, dose: 200.0 mg/kg/injection, schedule: Q01DX009 (ip), vehicle: saline 94 % of control

CCOC(=O)c1cnc(SC)nc1NCc1ccco1
inactive: [1] 95 % of control | [2] 100 % of control | [3] 97 % of control | [4] 97 % of control | [5] 106 % of control | [6] 92 % of control

NC(Cc1ccccc1)c1ccccc1 (stereo not given) (tested in a mixture with another compound)
inactive: endpoint: mean survival time, dose: 100.0 mg/kg/injection, schedule: Q04DX003 (ip), vehicle: saline 89 % of control and 95 % of control | endpoint: mean survival time, dose: 200.0 mg/kg/injection, schedule: Q04DX003 (ip), vehicle: saline 89 % of control
